These results are taken from patent US9006437B2, “Xanthene dyes comprising a sulfonamide group” (Biotium, Inc., priority 2009, dated 2015).

The series can be described thus: Absorption/emission maxima of dyes in pH 7.4 PBS. It is filed as physicochemical.
As to `N=c1ccc2c(-c3ccccc3C(=O)O)c3ccc(N)c(S(=O)(=O)NCCOCCOCCOCCOCCOCCOCCOCCOCCC(=O)ON4C(=O)CCC4=O)c3oc-2c1S(=O)(=O)O` [compound 4], the “λabs (nm) (in pH 7.4 PBS)” value was found to be 488 nm and the “λem (nm) (in pH 7.4 PBS)” value is 516 nm.
For `N=c1ccc2c(-c3ccccc3C(=O)O)c3ccc(N)cc3oc-2c1S(=O)(=O)NCCCCCC(=O)ON1C(=O)CCC1=O` [Compound No. 9], the “λabs (nm) (in pH 7.4 PBS)” value is 529/ nm.
In the case of `COCCOCCNC(=O)c1ccc(-c2c3ccc(=N)c(S(=O)(=O)O)c-3oc3c(S(=O)(=O)NCCOCCOCCOCCOCCC(=O)ON4C(=O)CCC4=O)c(N)ccc23)c(C(=O)O)c1` [compound 5], the “λabs (nm) (in pH 7.4 PBS)” value was 488 nm and the “λem (nm) (in pH 7.4 PBS)” value was 516 nm.
Regarding `N=c1ccc2c(-c3ccccc3C(=O)O)c3ccc(N)c(S(=O)(=O)NCCOCCOCCOCCOCCOCCOCCOCCN)c3oc-2c1S(=O)(=O)O` [compound 3], the “λabs (nm) (in pH 7.4 PBS)” value worked out at 488 nm and the “λem (nm) (in pH 7.4 PBS)” value was found to be 516 nm.
Taken in the same sequence, the figures for `N=c1ccc2c(-c3ccccc3C(=O)O)c3ccc(N)c(S(=O)(=O)NCCCCCC(=O)ON4C(=O)CCC4=O)c3oc-2c1` [compound 1] were 488 nm and 516 nm.
